Experimental data reported in US9527896B2, “Stabilized p53 peptides and uses thereof” (DANA-FARBER CANCER INSTITUTE, INC., priority 2007, dated 2016).
Bridge positions count the residues as written; N and C are the ends. Square brackets hold non-standard residues; d marks the D form. Peptide text beside a SMILES is read from it. R8 = C=CCCCCCC[C@@](C)(N)C(=O)O; S5 = C=CCCC[C@](C)(N)C(=O)O; βAla = NCCC(=O)O

What was measured:
HDM2 = biological target: T1, HDM2 (Homo sapiens, UniProt Q00987); assay: Kd (nM)
T1 construct: Co-Immunoprecipitation of FITC-SAH-p53 Peptides and Endogenous HDM2; endogenous in cells; host or cells: SJSA-1 osteosarcoma cells
T1 sequence (Q00987 whole entry, looked up): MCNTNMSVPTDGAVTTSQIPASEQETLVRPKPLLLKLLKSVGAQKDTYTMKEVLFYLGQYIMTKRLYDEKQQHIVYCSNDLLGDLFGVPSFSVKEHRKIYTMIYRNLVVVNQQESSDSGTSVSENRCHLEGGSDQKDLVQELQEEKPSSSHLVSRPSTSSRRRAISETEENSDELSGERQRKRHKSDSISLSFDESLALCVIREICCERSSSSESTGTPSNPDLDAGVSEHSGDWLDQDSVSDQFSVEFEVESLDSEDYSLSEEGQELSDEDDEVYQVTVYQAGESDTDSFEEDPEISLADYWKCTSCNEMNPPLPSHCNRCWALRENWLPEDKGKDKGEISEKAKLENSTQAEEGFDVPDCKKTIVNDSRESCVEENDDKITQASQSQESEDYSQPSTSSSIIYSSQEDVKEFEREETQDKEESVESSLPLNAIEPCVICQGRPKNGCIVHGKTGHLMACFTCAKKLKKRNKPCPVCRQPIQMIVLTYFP
Excerpt: The patent's description of the figure: FIGS. 1A-1F Synthesis, Sequence, and Biochemical Analysis of SAH-p53 Peptides. FIG. 1A Non-natural amino acids were synthesized as described and cross-linked by ruthenium-catalyzed ring-closing olefin metathesis. […] Note: UAH-p53-8 is the “unstapled” form of SAH-p53-8.

RKO cells = assay: Annexin V binding as an indicator of apoptosis, RKO cells; type: cell-based; settings: 24 hours
Excerpt: FIG. 9 Annexin V binding as an indicator of apoptosis.

circular dichroism = settings: water; pH 7.0; 20 °C; 10-50 uM
Native HDM2 = biological target: T2, Native HDM2 (Homo sapiens, UniProt Q00987); assay: Co-immunoprecipitation of FITC-SAH-p53 peptides and endogenous HDM2; type: cell-based; settings: SJSA-1 cells
T2 construct: Co-Immunoprecipitation of FITC-SAH-p53 Peptides and Endogenous HDM2; endogenous in cells; host or cells: SJSA-1 osteosarcoma cells
T2 sequence (Q00987 whole entry): as the sequence (Q00987 whole entry, looked up) above
Description: FIG. 8 SJSA-1 cells were incubated with FITC-peptides followed by lysis and anti-FITC pull down.
SJSA-1 osteosarcoma cells (1×10^6) were treated with FITC-p53 peptides (15 μM) in serum-free media for 4 hours, followed by serum replacement and additional 8 hour incubation. The cells were thoroughly washed with serum-containing media and PBS and exposed to lysis buffer (50 mM Tris pH 7.6, 150 mM NaCl, 1% Triton-X100, 1 mM PMSF, 1 U mL^−1 benzonase nuclease [EMD Biosciences] and complete protease inhibitor tablet [Roche]) at room temperature. All subsequent steps were all performed at 4° C. The extracts were centrifuged, and the supernatants were incubated with protein A/G sepharose (50 μL 50% bead slurry per 0.5 mL lysatcs; Santa Cruz Biotechnology). The pre-cleared supernatants (500 μL) were collected after centrifugation, incubated with 10 μL of goat-anti-FITC antibody (AbCam) for 1.5 h followed by protein A/G sepharose for an additional 1.5 hours. The immunoprecipitation reactions were pelleted and washed three times with lysis buffer. The precipitated proteins were suspended in SDS-containing loading buffer, boiled, and the supernatants were processed by SDS-PAGE on 4-12% Bis-Tris gels (Invitrogen). The proteins were blotted into Immobilon-P membranes (Millipore). […]

Kd (HDM2) [nM] | co-immunoprecipitation of native HDM2 (anti-FITC pull down) (Native HDM2) | Compound | apoptosis induction (annexin V, FACS) (RKO cells) | helicity (circular dichroism) [%]
56 ± 11 |  | CC(=O)NCCC(=O)N[C@@H](CC(C)C)C(=O)N[C@@H](CO)C(=O)N[C@@H](CCC(N)=O)C(=O)N[C@@H](CCC(N)=O)C(=O)N[C@H](C(=O)N[C@@H](Cc1ccccc1)C(=O)N[C@]1(C)CCCCCCC=CCCC[C@@](C)(C(=O)N[C@@H](CCC(N)=O)C(=O)N[C@@H](CC(N)=O)C(N)=O)NC(=O)[C@H](CC(C)C)NC(=O)[C@H](CC(C)C)NC(=O)[C@H](CCCNC(=N)N)NC(=O)[C@H](Cc2c[nH]c3ccccc23)NC(=O)[C@H](CC(C)C)NC(=O)[C@H](CC(N)=O)NC1=O)[C@@H](C)O [SAH-p53-6] (Ac-[βAla]LSQQTF[R8]NLWRLL[S5]QN-NH2; staple 8-15) | caused significant apoptosis | 14
 | co-immunoprecipitated | FITC-SAH-p53-8: N-terminally fluoresceinated SAH-p53-8 |  | 
